From paper PMC9323955, “Synthesis and Evaluation of Small Molecule Drug Conjugates Harnessing Thioester-Linked Maytansinoids” (Pharmaceutics, 2022)

Legend:
[1] = test system: HCC1806 triple-negative breast cancer cells; test: MTS cell viability assay (72 h); assay type: cell-based, human; conditions: Homo sapiens, HCC1806; 72 h incubation, MTS; read-out: IC50, cytotoxicity against HCC1806 cells
Method: HCC1806 cells were grown in RPMI 1640 medium, and MTS assays were performed to check cell viability. Cells (2500–3000 cells/well) were grown in flat-bottomed 96-well plates for 24 h, and then serial dilutions of the compound were added, and cells were allowed to incubate for a further 72 h. At the end of the 72-h incubation period, the medium was removed, and 100 μL of a solution including a mixture of MTS and PMS was added. The cells were incubated for 1.5 h at 37 °C in a humidified incubator with 5% CO2 to allow viable cells to convert tetrazolium salts to formazan. Conversion to formazan was measured by absorbance (490 nm) using a BioTek PowerWave-X absorbance microplate meter. The data collected were normalized using a DMSO-treated control (100% viability) and a background control (0% viability) to verify growth inhibition.

[2] = test system: HCC1806 human triple-negative breast cancer tumors; test: HCC1806 xenograft tumor efficacy; assay type: in vivo, female nude mice; conditions: 0.3 mg/kg i.v. twice weekly for 2 weeks
Method: Cancer cells suspended in RPMI 1640 medium (11835-030, Thermo Fisher Scientific, Waltham, MA, USA) were mixed with Matrigel™ (356237, BD Biosciences, Franklin Lakes, NJ, USA) in a 1:1 ratio. Human triple-negative breast cancer HCC1806 (1 × 10^6 cells) cells were inoculated subcutaneously into the left flank of 6-week-old female nude mice (BioLASCO Taiwan, Taipei, Taiwan) using a 1 mL syringe with a 24G needle (AN-2425R, Terumo Medical Corp., Tokyo, Japan). Tumor dimensions were measured twice weekly using electronic calipers (FOW54-200-777, PRO-MAX), and the volume of tumor grown subcutaneously (mm^3) was calculated by the formula Volume = (length × width^2)/2. A combination of 10% DMA/20% Cremophor EL/70% 5% dextrose injection (D5W) was formulated to treat HCC1806 xenograft tumors. Mice with HCC1806 tumors were grouped and administered the indicated dosing regimen of 1 mg/kg for the conjugate and 0.3 mg/kg for the cytotoxic payloads DM1 and DM4 twice-weekly (day 1 and day 4) for 2 weeks when the mean tumor volume was approximately 200–250 mm^3 or 850–900 mm^3 (large tumors). The conjugate dose of 2 mg/kg was administered weekly for the large tumor study. The body weight and tumor volume of mice were measured twice weekly. In addition, a previously reported oncogene-induced, sorafenib-resistant HCC mouse model was used in the current study to examine the antitumor activities of synthesized compounds. Briefly, plasmids including transposase (pCMV(CAT)T7-SB100), human Akt1, and luciferase (pKT2/CLP-AKT-2A-OVA-HBc-HBs-LUC) and the N-Ras V12 mutant (pT/Caggs-NRASV12) were hydrodynamically injected (HDI) and the liver was monitored for the appearance of HCC. HCC mice with a total flux of more than 1 × 10^9 photons/s from IVIS imaging were used as treatment conjugates. The indicated conjugate was administered intravenously at 1 mg/kg 3 times per week over 2 weeks. IVIS imaging was repeatedly performed to follow tumor progression, and tumor tissue from treated HCC mice was collected for histological examination and RNA extraction after administration.

[3] = Plasma stability, 24 h incubation with plasma (HPLC); assay type: in vitro ADME
Method: Zn8_DM1: 0H VS. 24H in plasma.
Zn10_DM4: 0H VS. 24H in plasma.
Supporting Figure S1. Incubation of Linker-drug 3 and 4, conjugates Zn8_DM1 and
Zn10_DM4, DM1 and DM4 with plasma for 24 hrs. HPLC condition is listed below. […]

[4] = PS SPR binding assay (Biacore T200, L1 chip); conditions: DOPC/DOPS (3:1, v/v) liposomes on L1 chip, 25 °C
Method: Phospholipids, 1,2-dioleoyl-sn-glycero-3-phosphocholine (DOPC) and 1,2-dioleoyl-sn-glycero-3-[phosphate-L-serine] (DOPS) were obtained as chloroform solutions from Avanti Polar Lipids (Alabaster, AL, USA). These stock solutions were mixed in the specified proportions. A 0.4 mL aliquot of the lipid solution at a 10 mg/mL concentration was added to a round bottom flask and evaporated under a stream of N2 to provide a thin lipid film. The lipid films were rehydrated in PBS buffer for at least 1 h at room temperature. The resulting suspension was extruded through a 100 nm polycarbonate filter using an Avanti MiniExtruder according to the manufacturer’s instructions. Zeta potential (ZP) and liposome size distribution were recorded by dynamic light scattering (DLS) and microelectrophoresis using a Zetasizer Nano ZS instrument. The binding kinetics between conjugates and liposomes were recorded at 25 °C using a Biacore T200 biosensor equipped with an L1 sensor chip (GE Healthcare, Chicago, IL, USA). The new sensor chip was pretreated with running buffer (5% DMSO in phosphate buffered saline (PBS) at a pH of 7.4) and two consecutive 30 s pulses of 2:3 v/v 50 mM HCl/isopropanol at a flow rate of 30 μL/min. New liposome capture plates were prepared for each binding cycle. In PBS buffer, liposomes are diluted to 0.5–1 mM and captured to saturation in isolated flow cells at 2–5 μL/min (30–150 s). […]

Row | Compound | IC50 [1] | anti-HCC1806 tumor growth activity of free payload [2] | cleavage of the maytansinoid after incubation with plasma [3] | association with PS-coated liposomes (SPR) [4]
1 | COc1cc2cc(c1Cl)N(C)C(=O)CC(OC(=O)C(C)N(C)C(=O)CCC(C)(C)S)C1(C)OC1C(C)C1CC(O)(NC(=O)O1)C(OC)C=CC=C(C)C2 [DM4, (14R,16R,33R,2S,4S,10E,12Z,14S)-86-chloro-14-hydroxy-85,14-dimethoxy-33,2,7,10-tetramethyl-12,6-dioxo-7-aza-1(6,4)-oxazinana-3(2,3)-oxirana-8(1,3)-benzenacyclotetradecaphane-10,12-dien-4-yl N-(4-mercapto-4-methylpentanoyl)-N-methyl-D-alaninate, reference compound] | 7 nM | marginal improvement in its antitumor activity | – | –
2 | COc1cc2cc(c1Cl)N(C)C(=O)C[C@H](OC(=O)[C@H](C)N(C)C(=O)CCSC(=O)c1ccc(CN(CCOCCOCCNC(=O)OC(C)(C)C)C(=O)C3(c4ccc(Cl)cc4)CCCCC3)cc1)[C@]1(C)O[C@H]1[C@H](C)[C@@H]1C[C@@](O)(NC(=O)O1)[C@H](OC)/C=C/C=C(\C)C2 [compound 3, (14R,16R,33R,2S,4S,10E,12Z,14S)-86-Chloro-14-hydroxy-85,14-dimethoxy-33,2,7,10-tetramethyl-12,6-dioxo-7-aza-1(6,4)-oxazinana-3(2,3)-oxirana-8(1,3)-benzenacyclotetradecaphane-10,12-dien-4-yl N-(3-((4-(2-(1-(4-chlorophenyl)cyclohexane-1-carbonyl)-14,14-dimethyl-12-oxo-5,8,13-trioxa-2,11-diazapentadecyl)benzoyl)thio)propanoyl)-N-methyl-L-alaninate] | – | – | No cleavage | –
3 | COc1cc2cc(c1Cl)N(C)C(=O)C[C@H](OC(=O)[C@H](C)N(C)C(=O)CCS)[C@]1(C)O[C@H]1[C@H](C)[C@@H]1C[C@@](O)(NC(=O)O1)[C@H](OC)/C=C/C=C(\C)C2 [DM1, (14S,16S,32R,33S,2R,4S,10E,12E,14R)-86-chloro-14-hydroxy-85,14-dimethoxy-33,2,7,10-tetramethyl-12,6-dioxo-7-aza-1(6,4)-oxazinana-3(2,3)-oxirana-8(1,3)-benzenacyclotetradecaphane-10,12-dien-4-yl N-(3-mercaptopropanoyl)-N-methyl-D-alaninate, reference compound] | 21 nM | – | – | did not show association properties
4 | COc1cc2cc(c1Cl)N(C)C(=O)CC(OC(=O)C(C)N(C)C(=O)CCC(C)(C)SC(=O)c1ccc(CN(CCOCCOCCNC(=O)OC(C)(C)C)C(=O)C3(c4ccc(Cl)cc4)CCCCC3)cc1)C1(C)OC1C(C)C1CC(O)(NC(=O)O1)C(OC)C=CC=C(C)C2 [compound 4, (14R,16R,33R,2S,4S,10E,12Z,14S)-86-Chloro-14-hydroxy-85,14-dimethoxy-33,2,7,10-tetramethyl-12,6-dioxo-7-aza-1(6,4)-oxazinana-3(2,3)-oxirana-8(1,3)-benzenacyclotetradecaphane-10,12-dien-4-yl N-(4-((4-(2-(1-(4-chlorophenyl)cyclohexane-1-carbonyl)-14,14-dimethyl-12-oxo-5,8,13-trioxa-2,11-diazapentadecyl)benzoyl)thio)-4-methylpentanoyl)-N-methyl-D-alaninate] | – | – | No cleavage | –
